Series [1] can be described thus: log P (pH2.3). In kind it is physicochemical. As to conditions: reversed-phase HPLC column (C18).
Series [2] deals with Phytophthora infestans. The series can be described thus: whole plant or invertebrate. In kind it is in vivo. Conditions: in Solanum lycopersicum, 168 h, read-out: efficacy.
Series [3] concerns Plasmopara viticola. Put plainly: Plasmopara test (grapevine)/protective. In kind it is in vivo. Conditions: 144 h, active compound concentration of 100 ppm, young grapevine plants sprayed, then inoculated, evaluation 6 days after inoculation, 0% = control, 100% = no infection, read-out: efficacy. The procedure:
Plasmopara Test (Grapevine)/Protective
After the spray coating has dried on, the plants are inoculated with an aqueous spore suspension of Plasmopara viticola and then remain in an incubation cabin at about 20° C. and 100% relative atmospheric humidity for 1 day. The plants are then placed in a greenhouse at about 21° C. and an atmospheric humidity of about 90% for 4 days. The plants are then moistened and placed in an incubation cabin for 1 day.
Evaluation is carried out 6 days after the inoculation.

[4] abbreviates: method [b]: LC-MS, acidic range, pH 2.7, 0.1% aqueous formic acid and acetonitrile.

Structures are written as SMILES.

Broadly, the chromatographic logP is lipophilicity estimated from chromatographic retention. With `Cc1cc(C(F)(F)F)nn1CC(=O)N1CCC(c2nc(/C=C\c3cccc4ccccc34)cs2)CC1` [Example I-2, 2-[5-Methyl-3-(trifluoromethyl)-1H-pyrazol-1-yl]-1-(4-{4-[(Z)-2-(naphthalen-1-yl)ethenyl]-1,3-thiazol-2-yl}piperidin-1-yl)ethanone], in series [1] (setting [4]), the chromatographic logP turned out to be 4.52. Besides, the pest or weed control at 500 ppm in series [2] is no less than 70%.
The corresponding values for `Cc1cc(C(F)(F)F)nn1CC(=O)N1CCC(c2nc(/C=C\CC(C)c3ccccc3)cs2)CC1` (stereo not drawn) [Example I-3, 2-[5-Methyl-3-(trifluoromethyl)-1H-pyrazol-1-yl]-1-(4-{4-[(1Z)-4-phenylpent-1-en-1-yl]-1,3-thiazol-2-yl}piperidin-1-yl)ethanone] are 4.84 and no less than 70%.
The matching figures for `Cc1cc(C(F)(F)F)nn1CC(=O)N1CCC(c2nc(/C=C/c3cccc4ccccc34)cs2)CC1` [Example I-27, 2-[5-Methyl-3-(trifluoromethyl)-1H-pyrazol-1-yl]-1-(4-{4-[(E)-2-(naphthalen-1-yl)ethenyl]-1,3-thiazol-2-yl}piperidin-1-yl)ethanone]: 4.63 and no less than 70%.
`Cc1cc(C(F)(F)F)nn1CC(=O)N1CCC(c2nc(C#Cc3cccc4ccccc34)cs2)CC1` [Example I-50, 2-[5-Methyl-3-(trifluoromethyl)-1H-pyrazol-1-yl]-1-{4-[4-(naphthalen-1-ylethynyl)-1,3-thiazol-2-yl]piperidin-1-yl}ethanone]: the chromatographic logP came to 4.5 in series [1] (setting [4]); 4.66 in series [1] (method [c]: LC-MS, neutral range, pH 7.8, 0.001 molar aqueous ammonium bicarbonate and acetonitrile). Besides, the pest or weed control at 500 ppm in series [2] is no less than 70%. The pest or weed control at 100 ppm in series [3] is no less than 70%.
`Cc1cc(C(F)(F)F)nn1CC(=O)N1CCC(c2nc(C#Cc3cccnc3)cs2)CC1` [Example I-51, 2-[5-Methyl-3-(trifluoromethyl)-1H-pyrazol-1-yl]-1-{4-[4-(pyridin-3-ylethynyl)-1,3-thiazol-2-yl]piperidin-1-yl}ethanone] displayed a chromatographic logP in series [1] (setting [4]) of 2.68. In series [2], the pest or weed control at 500 ppm is no less than 70%. Further, the pest or weed control at 100 ppm in series [3] was no less than 70%.
With `Cc1cc(C(F)(F)F)nn1CC(=O)N1CCC(c2nc(C#CCc3ccccc3)cs2)CC1` [Example I-52, 2-[5-Methyl-3-(trifluoromethyl)-1H-pyrazol-1-yl]-1-{4-[4-(3-phenylprop-1-yn-1-yl)-1,3-thiazol-2-yl]piperidin-1-yl}ethanone], in series [1] (setting [4]), the chromatographic logP came to 3.88. Besides, in series [2], the pest or weed control at 500 ppm was no less than 70%.
Compound `Cc1cc(C(F)(F)F)nn1CC(=O)N1CCC(c2nc(CCc3ccccc3)cs2)CC1` [Example I-53, 2-[5-Methyl-3-(trifluoromethyl)-1H-pyrazol-1-yl]-1-{4-[4-(2-phenylethyl)-1,3-thiazol-2-yl]piperidin-1-yl}ethanone] had a chromatographic logP in series [1] (method [a]: HPLC, acidic range, pH 2.3, 0.1% aqueous phosphoric acid and acetonitrile) of 3.79. For the same compound, in series [2], the pest or weed control at 500 ppm is no less than 70%. Besides, in series [3], the pest or weed control at 100 ppm is no less than 70%.
On to `Cc1cc(C(F)(F)F)nn1CC(=O)N1CCC(c2nc(CCCC(C)c3ccccc3)cs2)CC1` (stereo not drawn) [Example I-80, 2-[5-Methyl-3-(trifluoromethyl)-1H-pyrazol-1-yl]-1-{4-[4-(4-phenylpentyl)-1,3-thiazol-2-yl]piperidin-1-yl}ethanone], for which the chromatographic logP in series [1] (setting [4]) came to 4.77. In series [2], the pest or weed control at 500 ppm is no less than 70%. The pest or weed control at 100 ppm in series [3] is no less than 70%.
Take `Cc1cc(C(F)(F)F)nn1CC(=O)N1CCC(c2nc(CCc3cccc4ccccc34)cs2)CC1` [Example I-81, 2-[5-Methyl-3-(trifluoromethyl)-1H-pyrazol-1-yl]-1-(4-{4-[2-(naphthalen-1-yl)ethyl]-1,3-thiazol-2-yl}piperidin-1-yl)ethanone]: the chromatographic logP in series [1] (setting [4]) was found to be 4.37. Moreover, in series [2], the pest or weed control at 500 ppm was no less than 70%. Also, in series [3], the pest or weed control at 100 ppm is no less than 70%.
With `Cc1cc(C(F)(F)F)nn1CC(=S)N1CCC(c2nc(/C=C/c3ccccc3)cs2)CC1` [Example I-93, 2-[5-Methyl-3-(trifluoromethyl)-1H-pyrazol-1-yl]-1-(4-{4-[(E)-2-phenylethenyl]-1,3-thiazol-2-yl}piperidin-1-yl)ethanethione], the chromatographic logP in series [1] (setting [4]) is 4.65. For the same compound, in series [2], the pest or weed control at 500 ppm was no less than 70%. Moreover, the pest or weed control at 100 ppm in series [3] is no less than 70%.
As to `Cc1cc(C(F)(F)F)nn1CC(=O)N1CCC(c2nc(C#C[Si](C)(C)C)cs2)CC1` [Example I-98, 2-[5-Methyl-3-(trifluoromethyl)-1H-pyrazol-1-yl]-1-(4-{4-[(trimethylsilyl)ethynyl]-1,3-thiazol-2-yl}piperidin-1-yl)ethanone], the chromatographic logP in series [1] (setting [4]) was 4.28. Moreover, the pest or weed control at 500 ppm in series [2] was no less than 70%. Also, the pest or weed control at 100 ppm in series [3] was no less than 70%.
`COc1ccc(C#Cc2csc(C3CCN(C(=O)Cn4nc(C(F)(F)F)cc4C)CC3)n2)cc1` [Example I-100, 1-(4-{4-[(4-Methoxyphenyl)ethynyl]-1,3-thiazol-2-yl}piperidin-1-yl)-2-[5-methyl-3-(trifluoromethyl)-1H-pyrazol-1-yl]ethanone]: the chromatographic logP in series [1] (setting [4]) came out at 3.79. Further, the pest or weed control at 500 ppm in series [2] was no less than 70%. Also, in series [3], the pest or weed control at 100 ppm is no less than 70%.
With `COc1ccccc1C#Cc1csc(C2CCN(C(=O)Cn3nc(C(F)(F)F)cc3C)CC2)n1` [Example I-103, 1-(4-{4-[(2-Methoxyphenyl)ethynyl]-1,3-thiazol-2-yl}piperidin-1-yl)-2-[5-methyl-3-(trifluoromethyl)-1H-pyrazol-1-yl]ethanone], the chromatographic logP in series [1] (setting [4]) came out at 3.67. Besides, the pest or weed control at 500 ppm in series [2] is no less than 70%. Further, in series [3], the pest or weed control at 100 ppm was no less than 70%.

These data come from patent US7943774B2 (priority 2008, dated 2011).
